The source of these data is ChEMBL document CHEMBL5715260, “Selectivity Literature for EUbOPEN Chemogenomic Library” (2024).

Common to all, as to parameters: recommended concentration 1 uM
Assay [1] concerns the target T1, Hepatocyte nuclear factor 4-alpha (Homo sapiens) (UniProt P41235).
T1 sequence (whole entry): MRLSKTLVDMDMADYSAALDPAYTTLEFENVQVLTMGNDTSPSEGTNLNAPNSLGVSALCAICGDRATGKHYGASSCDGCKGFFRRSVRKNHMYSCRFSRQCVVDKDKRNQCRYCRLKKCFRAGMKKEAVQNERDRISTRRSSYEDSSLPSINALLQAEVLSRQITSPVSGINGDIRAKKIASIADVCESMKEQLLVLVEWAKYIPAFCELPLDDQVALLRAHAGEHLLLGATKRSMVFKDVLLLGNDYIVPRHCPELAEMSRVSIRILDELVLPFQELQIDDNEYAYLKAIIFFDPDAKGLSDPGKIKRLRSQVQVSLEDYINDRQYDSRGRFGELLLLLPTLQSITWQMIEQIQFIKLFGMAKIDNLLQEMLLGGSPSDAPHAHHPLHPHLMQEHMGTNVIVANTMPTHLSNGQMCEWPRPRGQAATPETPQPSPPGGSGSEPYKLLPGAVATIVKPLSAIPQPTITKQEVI
As to the kind of experiment: Selectivity interaction (Reporter gene assay) EUB0000567a HNF4A. For orientation: A reporter such as luciferase makes a cellular process visible.

For assay [2], the target named is T2, Nuclear receptor subfamily 2 group C member 1 (Homo sapiens) (UniProt P13056).
T2 sequence (whole entry): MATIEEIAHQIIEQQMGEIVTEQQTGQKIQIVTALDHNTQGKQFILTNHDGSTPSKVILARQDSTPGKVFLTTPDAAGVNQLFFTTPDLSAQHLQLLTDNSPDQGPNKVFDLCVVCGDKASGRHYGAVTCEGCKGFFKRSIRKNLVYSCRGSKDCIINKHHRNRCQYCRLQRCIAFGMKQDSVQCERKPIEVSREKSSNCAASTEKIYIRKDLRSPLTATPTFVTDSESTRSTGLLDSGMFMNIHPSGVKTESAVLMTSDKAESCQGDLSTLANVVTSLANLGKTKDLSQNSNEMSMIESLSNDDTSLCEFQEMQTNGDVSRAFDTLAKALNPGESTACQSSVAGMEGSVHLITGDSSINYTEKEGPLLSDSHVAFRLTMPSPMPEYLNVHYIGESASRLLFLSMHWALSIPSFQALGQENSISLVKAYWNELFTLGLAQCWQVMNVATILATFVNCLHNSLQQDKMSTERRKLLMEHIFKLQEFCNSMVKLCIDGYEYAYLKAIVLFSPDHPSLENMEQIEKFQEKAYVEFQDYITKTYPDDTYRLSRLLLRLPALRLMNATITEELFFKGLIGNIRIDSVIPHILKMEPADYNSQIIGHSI
Nature of the assay: Selectivity interaction (Reporter gene assay) EUB0000567a NR2C1.

Assay [3] addresses Nuclear receptor subfamily 2 group E member 1 (Homo sapiens) (UniProt Q9Y466). As to the kind of experiment: Selectivity interaction (Reporter gene assay) EUB0000567a NR2E1.
In assay [4] the target is Nuclear receptor subfamily 4immunitygroup A member 1 (Homo sapiens) (UniProt P22736). As to the kind of experiment: Selectivity interaction (Reporter gene assay) EUB0000567a NR4A1.
Nuclear receptor subfamily 4immunitygroup A member 1 (Homo sapiens), sequence (P22736 whole entry): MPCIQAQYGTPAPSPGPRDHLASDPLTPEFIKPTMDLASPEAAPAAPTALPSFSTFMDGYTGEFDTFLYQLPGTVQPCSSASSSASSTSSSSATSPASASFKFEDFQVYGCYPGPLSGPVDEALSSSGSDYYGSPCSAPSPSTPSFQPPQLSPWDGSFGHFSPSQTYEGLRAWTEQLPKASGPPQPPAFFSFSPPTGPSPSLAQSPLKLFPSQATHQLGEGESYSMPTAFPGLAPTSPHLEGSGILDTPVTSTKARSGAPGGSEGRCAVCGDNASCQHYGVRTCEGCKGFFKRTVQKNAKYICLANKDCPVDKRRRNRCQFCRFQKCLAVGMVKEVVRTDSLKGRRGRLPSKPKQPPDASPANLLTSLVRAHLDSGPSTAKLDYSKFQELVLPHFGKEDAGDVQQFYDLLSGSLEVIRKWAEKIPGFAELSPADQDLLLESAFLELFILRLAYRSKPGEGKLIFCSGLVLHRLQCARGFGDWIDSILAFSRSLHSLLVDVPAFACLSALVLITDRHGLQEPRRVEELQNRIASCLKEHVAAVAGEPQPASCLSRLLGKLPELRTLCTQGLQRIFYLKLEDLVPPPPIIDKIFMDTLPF
In assay [5] the target is Steroidogenic factor 1 (Homo sapiens) (UniProt Q13285). As to the kind of experiment: Selectivity interaction (Reporter gene assay) EUB0000567a NR5A1.
Steroidogenic factor 1 (Homo sapiens), sequence (Q13285 whole entry): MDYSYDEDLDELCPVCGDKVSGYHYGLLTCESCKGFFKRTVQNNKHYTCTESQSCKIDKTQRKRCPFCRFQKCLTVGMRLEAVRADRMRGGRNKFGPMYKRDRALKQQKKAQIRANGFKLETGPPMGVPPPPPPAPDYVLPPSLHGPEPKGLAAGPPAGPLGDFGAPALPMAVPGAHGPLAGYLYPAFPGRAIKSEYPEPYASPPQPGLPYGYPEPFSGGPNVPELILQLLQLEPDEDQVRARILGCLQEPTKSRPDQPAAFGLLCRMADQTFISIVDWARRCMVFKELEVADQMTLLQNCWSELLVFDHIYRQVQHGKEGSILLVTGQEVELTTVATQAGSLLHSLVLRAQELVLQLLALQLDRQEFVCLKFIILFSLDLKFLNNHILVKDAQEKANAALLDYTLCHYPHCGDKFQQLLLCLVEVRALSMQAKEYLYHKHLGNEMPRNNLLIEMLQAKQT
For assay [6], the target named is T3, Alpha trans-inducing protein (Human alphaherpesvirus 1) (UniProt A0A5J6DW59). As to the kind of experiment: Selectivity interaction (Reporter gene assay) EUB0000567a UL48.
T3 sequence (A0A5J6DW59 as listed by the source): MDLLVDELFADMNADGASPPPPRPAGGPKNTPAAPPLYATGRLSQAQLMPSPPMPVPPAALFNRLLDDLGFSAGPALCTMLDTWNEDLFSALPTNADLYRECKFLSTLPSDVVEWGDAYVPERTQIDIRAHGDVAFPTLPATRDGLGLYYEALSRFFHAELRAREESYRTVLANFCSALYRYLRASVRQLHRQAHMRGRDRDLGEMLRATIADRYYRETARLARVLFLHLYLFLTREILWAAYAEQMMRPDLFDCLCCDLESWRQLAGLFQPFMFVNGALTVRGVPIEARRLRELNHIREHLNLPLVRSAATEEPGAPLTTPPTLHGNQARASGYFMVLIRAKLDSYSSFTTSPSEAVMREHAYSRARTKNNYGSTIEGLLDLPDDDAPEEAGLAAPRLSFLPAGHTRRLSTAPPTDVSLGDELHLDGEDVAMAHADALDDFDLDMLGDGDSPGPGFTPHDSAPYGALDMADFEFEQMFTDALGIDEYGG
Assay [7] has as its target T4, Retinoic acid receptor RXR-alpha (Homo sapiens) (UniProt P19793).
T4 sequence (whole entry): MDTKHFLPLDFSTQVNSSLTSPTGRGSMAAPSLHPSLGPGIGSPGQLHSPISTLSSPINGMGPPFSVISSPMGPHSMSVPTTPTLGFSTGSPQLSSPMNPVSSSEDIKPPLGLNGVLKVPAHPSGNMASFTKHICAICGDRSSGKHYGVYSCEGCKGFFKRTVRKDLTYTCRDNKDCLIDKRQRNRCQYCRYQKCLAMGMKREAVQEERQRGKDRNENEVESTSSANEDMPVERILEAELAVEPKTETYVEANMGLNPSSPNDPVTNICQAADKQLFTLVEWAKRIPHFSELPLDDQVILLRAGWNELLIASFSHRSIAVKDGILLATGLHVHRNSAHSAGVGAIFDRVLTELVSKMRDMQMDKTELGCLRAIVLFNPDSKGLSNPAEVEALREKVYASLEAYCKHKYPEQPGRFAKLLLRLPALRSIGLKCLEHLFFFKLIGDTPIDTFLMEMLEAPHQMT
Nature of the assay: Selectivity interaction (Reporter gene assay) EUB0000567a RXRA.

The target of assay [8] is T1, Hepatocyte nuclear factor 4-alpha (Homo sapiens). Nature of the assay: Selectivity interaction (Reporter gene assay) EUB0000565a HNF4A.
Assay [9] concerns the target T2, Nuclear receptor subfamily 2 group C member 1 (Homo sapiens). As to the kind of experiment: Selectivity interaction (Reporter gene assay) EUB0000565a NR2C1.
Assay [10] addresses Nuclear receptor subfamily 2 group E member 1 (Homo sapiens) (UniProt Q9Y466). As to the kind of experiment: Selectivity interaction (Reporter gene assay) EUB0000565a NR2E1.
Assay [11] deals with Nuclear receptor subfamily 4immunitygroup A member 1 (Homo sapiens) (UniProt P22736). Nature of the assay: Selectivity interaction (Reporter gene assay) EUB0000565a NR4A1.
Assay [12] concerns the target Steroidogenic factor 1 (Homo sapiens) (UniProt Q13285). Nature of the assay: Selectivity interaction (Reporter gene assay) EUB0000565a NR5A1.
Assay [13] deals with T3, Alpha trans-inducing protein (Human alphaherpesvirus 1). As to the kind of experiment: Selectivity interaction (Reporter gene assay) EUB0000565a UL48.
In assay [14] the target is T4, Retinoic acid receptor RXR-alpha (Homo sapiens). As to the kind of experiment: Selectivity interaction (Reporter gene assay) EUB0000565a RXRA. As to conditions: reference bexarotene 1 uM, Selectivity number of off-targets 0.0, Selectivity number of targets 1.0, Source Knowledge inhouse.
In assay [15] the target is Retinoic acid receptor beta (Homo sapiens) (UniProt P10826). As to the kind of experiment: Selectivity interaction (Reporter gene assay) EUB0000565a RARB. As to conditions: screened at recom. conc., Selectivity number of off-targets 0.0, Selectivity number of targets 19.0, Source Knowledge inhouse.
Retinoic acid receptor beta (Homo sapiens), sequence (P10826 whole entry): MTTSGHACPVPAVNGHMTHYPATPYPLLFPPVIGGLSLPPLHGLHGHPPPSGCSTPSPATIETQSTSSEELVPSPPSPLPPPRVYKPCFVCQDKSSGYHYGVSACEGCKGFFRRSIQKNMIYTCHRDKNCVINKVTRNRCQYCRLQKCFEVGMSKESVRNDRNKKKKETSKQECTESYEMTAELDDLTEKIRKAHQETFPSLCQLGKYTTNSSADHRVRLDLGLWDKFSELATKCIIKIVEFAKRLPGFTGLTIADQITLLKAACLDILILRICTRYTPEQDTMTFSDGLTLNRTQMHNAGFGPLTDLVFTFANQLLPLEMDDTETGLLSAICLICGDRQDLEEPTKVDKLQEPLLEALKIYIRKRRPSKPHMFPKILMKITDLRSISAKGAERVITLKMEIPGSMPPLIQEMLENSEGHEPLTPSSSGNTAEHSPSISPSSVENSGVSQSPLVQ
Assay [16] has as its target T1, Hepatocyte nuclear factor 4-alpha (Homo sapiens). As to the kind of experiment: Selectivity interaction (Reporter gene assay) EUB0000564a HNF4A.
Assay [17] addresses T2, Nuclear receptor subfamily 2 group C member 1 (Homo sapiens). Nature of the assay: Selectivity interaction (Reporter gene assay) EUB0000564a NR2C1.
In assay [18] the target is Nuclear receptor subfamily 2 group E member 1 (Homo sapiens) (UniProt Q9Y466). Nature of the assay: Selectivity interaction (Reporter gene assay) EUB0000564a NR2E1.
Nuclear receptor subfamily 2 group E member 1 (Homo sapiens), sequence (Q9Y466 whole entry): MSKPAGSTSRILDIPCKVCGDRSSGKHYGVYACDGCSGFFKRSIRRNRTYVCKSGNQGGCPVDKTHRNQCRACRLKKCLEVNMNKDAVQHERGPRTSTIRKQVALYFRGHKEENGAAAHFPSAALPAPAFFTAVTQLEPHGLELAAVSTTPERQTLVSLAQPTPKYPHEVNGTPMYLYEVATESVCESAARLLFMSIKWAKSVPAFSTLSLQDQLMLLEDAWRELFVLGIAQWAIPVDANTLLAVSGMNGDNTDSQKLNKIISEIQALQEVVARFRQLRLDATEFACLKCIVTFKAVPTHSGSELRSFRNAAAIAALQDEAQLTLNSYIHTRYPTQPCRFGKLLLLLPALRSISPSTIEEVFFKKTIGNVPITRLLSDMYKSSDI
In assay [19] the target is Nuclear receptor subfamily 4immunitygroup A member 1 (Homo sapiens) (UniProt P22736). Nature of the assay: Selectivity interaction (Reporter gene assay) EUB0000564a NR4A1.
Assay [20] addresses Steroidogenic factor 1 (Homo sapiens) (UniProt Q13285). As to the kind of experiment: Selectivity interaction (Reporter gene assay) EUB0000564a NR5A1.
The target in assay [21] is T3, Alpha trans-inducing protein (Human alphaherpesvirus 1). As to the kind of experiment: Selectivity interaction (Reporter gene assay) EUB0000564a UL48.
Assay [22] has as its target T4, Retinoic acid receptor RXR-alpha (Homo sapiens). As to the kind of experiment: Selectivity interaction (Reporter gene assay) EUB0000564a RXRA. As to conditions: reference bexarotene 1 uM, Selectivity number of off-targets 0.0, Selectivity number of targets 1.0, Source Knowledge inhouse.
For assay [23], the target named is T1, Hepatocyte nuclear factor 4-alpha (Homo sapiens). Nature of the assay: Selectivity interaction (Reporter gene assay) EUB0000566a HNF4A.
For assay [24], the target named is T2, Nuclear receptor subfamily 2 group C member 1 (Homo sapiens). Nature of the assay: Selectivity interaction (Reporter gene assay) EUB0000566a NR2C1.
Assay [25] deals with Nuclear receptor subfamily 2 group E member 1 (Homo sapiens) (UniProt Q9Y466). Nature of the assay: Selectivity interaction (Reporter gene assay) EUB0000566a NR2E1.
The target in assay [26] is Nuclear receptor subfamily 4immunitygroup A member 1 (Homo sapiens) (UniProt P22736). Nature of the assay: Selectivity interaction (Reporter gene assay) EUB0000566a NR4A1.
The target in assay [27] is Steroidogenic factor 1 (Homo sapiens) (UniProt Q13285). Nature of the assay: Selectivity interaction (Reporter gene assay) EUB0000566a NR5A1.
Assay [28] concerns the target T3, Alpha trans-inducing protein (Human alphaherpesvirus 1). Nature of the assay: Selectivity interaction (Reporter gene assay) EUB0000566a UL48.
Assay [29] deals with T4, Retinoic acid receptor RXR-alpha (Homo sapiens). As to the kind of experiment: Selectivity interaction (Reporter gene assay) EUB0000566a RXRA.
In assay [30] the target is T1, Hepatocyte nuclear factor 4-alpha (Homo sapiens). As to the kind of experiment: Selectivity interaction (Reporter gene assay) EUB0000551aCl HNF4A.
Assay [31] has as its target T2, Nuclear receptor subfamily 2 group C member 1 (Homo sapiens). As to the kind of experiment: Selectivity interaction (Reporter gene assay) EUB0000551aCl NR2C1.
Assay [32] has as its target Nuclear receptor subfamily 2 group E member 1 (Homo sapiens) (UniProt Q9Y466). As to the kind of experiment: Selectivity interaction (Reporter gene assay) EUB0000551aCl NR2E1.
Assay [33] has as its target Nuclear receptor subfamily 4immunitygroup A member 1 (Homo sapiens) (UniProt P22736). As to the kind of experiment: Selectivity interaction (Reporter gene assay) EUB0000551aCl NR4A1.
Assay [34] concerns the target Steroidogenic factor 1 (Homo sapiens) (UniProt Q13285). Nature of the assay: Selectivity interaction (Reporter gene assay) EUB0000551aCl NR5A1.
For assay [35], the target named is T3, Alpha trans-inducing protein (Human alphaherpesvirus 1). Nature of the assay: Selectivity interaction (Reporter gene assay) EUB0000551aCl UL48.
Assay [36] deals with T4, Retinoic acid receptor RXR-alpha (Homo sapiens). Nature of the assay: Selectivity interaction (Reporter gene assay) EUB0000551aCl RXRA. As to conditions: reference bexarotene 1 uM, Selectivity number of off-targets 0.0, Selectivity number of targets 1.0, Source Knowledge inhouse.

`CC1(C)CCC(C)(C)c2cc(C(=O)Nc3ccc(C(=O)O)cc3)ccc21`: the Fold activation is 1.07 in [1] and 1.04 in assay [4]. The Remaining activity was determined as 0.976 in [2], 0.642 in [3] and 0.908 in [5]. In [6], this compound yielded a P-value of 0.0055. The Relative activation in assay [7] is 0.898%.

Consider `CC1(C)C(=O)C(C)(C)c2cc(C(=O)Nc3ccc(C(=O)O)cc3)ccc21`, for which the Remaining activity in [8] worked out at 0.954; in [10], 0.923; in assay [11], 0.925; in assay [12], 0.944. Besides, the Fold activation in [9] is 1; in [15], 13.5. The P-value in assay [13] came to 0.000922. The Relative activation in assay [14] came to 0.48%.

On to `COc1ccc(-c2ccc3cc(C(=O)O)ccc3c2)cc1C12CC3CC(CC(C3)C1)C2`, for which the Fold activation in assay [16] came to 1; in assay [17], 1.03; in [19] it was 1.11. Also, the Remaining activity in assay [18] came out at 0.926; in assay [20] it was 0.896. The P-value in assay [21] stood at 0.00282. This compound also gave a Relative activation in assay [22] of 0.848%.

As for `CC1(C)CCC(C)(C)c2cc(NC(=O)c3ccc(C(=O)O)cc3)ccc21`, the Fold activation in assay [23] is 0.997; in assay [26], 1.31. Also, the figures for the Remaining activity in assay [24], in assay [25] and in assay [27] were 0.903, 0.763 and 0.902, respectively. This compound displayed a P-value in [28] of 2.26e-06. The compound further showed a Relative activation in assay [29] of 0.52%.

For `Cc1cccc(CN2CCN(C(c3ccccc3)c3ccc(Cl)cc3)CC2)c1` (stereo unspecified), the Fold activation was determined as 1 in assay [30], 1.14 in assay [31], 1.01 in assay [32] and 1.12 in [33]. The compound further registered a Remaining activity in assay [34] of 0.814. Moreover, the P-value in [35] was determined as 0.00398. The same compound displayed a Relative activation in [36] of 0.534%.
